# Laboratory results reported in US8110220B2, “Temperature sensitive polymers” (Universiteit Utrecht, priority 2005, dated 2012).
# Assay: Degradation kinetics (hydrolysis) of oligolactate monomers, HPLC
# Format: physicochemical
# Settings: pH 7.4, 37° C.
# Method: The degradation kinetic studies of HEMAm-oligolactates were conducted as described by Neradovic et al [Macromolecules; 2003; 36(20); 7491-7498]. In brief, a 10 mM solution of HEMAm-oligolactate in DMSO was diluted 10 times with 100 mM PBS (pH 7.4) in a glass vial and the pH was adjusted to pH 7.4 with 4 M HCl. The resulting solutions of HEMAm-monolactate, -dilactate, -trilactate and—tetralactate were incubated in a shaking water bath at 37° C. At regular time intervals samples of 300 μl were withdrawn and 700 μl of 1 M sodium acetate buffer (pH 3.8) was added to prevent further hydrolysis. The samples were stored at 4° C. prior to HPLC analysis. The hydrolysis of HEMAm-trilactate and—tetralactate was also investigated in an acetonitril-PBS pH7.2 mixture (50:50 w/w) of lower dielectric constant to slow down the hydrolysis rate. The HPLC analysis was carried out on a Waters system (Waters Associates Inc., Milford, Mass., USA). This consisted of a pump Model 600, an autoinjector Model 717, a variable wavelength absorbance detector Model 996 and an analytical reversed phase column LiChrosphere 100 RP-18 (5 μm, 125×4 mm i.d.) with an RP-18 guard column (4×4 mm) (Merck) was used. The injection volume was 50 μl and the detection wavelength was 254 nm. […] The chromatograms were analyzed with Empower Software Version 1154 (Waters Associates Inc.). […]
row,SMILES,hydrolysis kinetics compared
1,"C=C(C)C(=O)NCCOC(=O)C(C)OC(=O)C(C)OC(=O)C(C)O (centres unmarked) [HEMAm-Lac3, HEMAm-trilactate]",even faster hydrolysis kinetics than HEMAm-Lac1-2
2,"C=C(C)C(=O)NCCOC(=O)C(C)OC(=O)C(C)OC(=O)C(C)OC(=O)C(C)O (centres unmarked) [HEMAm-Lac4, HEMAm-tetralactate]",even faster hydrolysis kinetics than HEMAm-Lac1-2
